Results from ChEMBL document CHEMBL1799932, “Antimalarial pyrido[1,2-a]benzimidazoles” (J Med Chem, 2011).

Key:
Rattus norvegicus [1] = assay: Tmax in fasted Sprague-Dawley rat assessed as 1-(2-Ethylaminoethylamino)-3-[4-(trifluoromethyl)phenyl]- pyrido[1,2-a]benzimidazole-4-carbonitrile level at 20 mg/kg, po after 48 hrs by LC-MS analysis; format: ADME, organism-based; design: dose 20 mg/kg, route oral; conditions: in vivo
Rattus norvegicus [2] = assay: AUC (0 to tlast) in fasted Sprague-Dawley rat assessed as 1-(2-Ethylaminoethylamino)-3-[4-(trifluoromethyl)phenyl]- pyrido[1,2-a]benzimidazole-4-carbonitrile level at 20 mg/kg, po after 48 hrs by LC-MS analysis; format: ADME, organism-based, Plasma; design: time < 48 hr, dose 20 mg/kg, route oral; conditions: in vivo
Rattus norvegicus [3] = assay: AUC (0 to tlast) in fasted Sprague-Dawley rat assessed as 1-(2-Ethylaminoethylamino)-3-[4-(trifluoromethyl)phenyl]- pyrido[1,2-a]benzimidazole-4-carbonitrile level at 5 mg/kg, iv after 48 hrs by LC-MS analysis; format: ADME, organism-based, Plasma; design: time < 48 hr, dose 5 mg/kg, route intravenous; conditions: in vivo
Plasmodium berghei [4] = assay: Antimalarial activity against GFP-transfected Plasmodium berghei strain ANKA infected in NMRI mouse assessed as increase in median survival time at 50 mg/kg/day, ip administered for 4 days measured up to 30 days post infection (reference value: 5 to 7 days); format: functional; conditions: route intraperitoneal
Plasmodium berghei [5] = assay: Antimalarial activity against GFP-transfected Plasmodium berghei strain ANKA infected in NMRI mouse assessed as reduction in parasitemia at 25 mg/kg, po administered as single dose measured on day 2 by FACS analysis; format: functional; design: scale not given: the % may be the effect or the level left
Plasmodium berghei [6] = assay: Antimalarial activity against GFP-transfected Plasmodium berghei strain ANKA infected in NMRI mouse assessed as reduction in parasitemia at 25 mg/kg, po administered as single dose measured on day 3 by FACS analysis; format: functional; design: scale not given: the % may be the effect or the level left
[7] = Metabolic stability in human liver microsomes assessed as degradation half life after 60 mins by LC-MS analysis; format: ADME, Microsome
[8] = Metabolic stability in rat liver microsomes assessed as degradation half life after 60 mins by LC-MS analysis; format: ADME, Microsome
[9] = Metabolic stability in mouse liver microsomes assessed as degradation half life after 60 mins by LC-MS analysis; format: ADME, Microsome
Plasma = assay: Plasma protein binding in human assessed as 1-(2-Diethylaminoethylamino)-3-[4-(trifluoromethyl)phenyl]-pyrido[1,2-a]benzimidazole-4-carbonitrile at 5 mg/kg, iv after 48 hrs by LC-MS analysis; format: ADME, organism-based; design: dose 5 mg/kg, route intravenous; conditions: in vivo
Plasmodium berghei [10] = assay: Antimalarial activity against GFP-transfected Plasmodium berghei strain ANKA infected in NMRI mouse assessed as increase in mean survival time at 25 mg/kg, po administered as single dose (reference value: 5 days )

CCN(CC)CCNc1cc(-c2ccc(C(F)(F)F)cc2)c(C#N)c2nc3ccccc3n12.Cl.Cl
Tmax (Rattus norvegicus [1]): 1200 min
AUClast (Rattus norvegicus [2]): 1032 µM·min
AUClast (Rattus norvegicus [3]): 666 µM·min
MSD (Plasmodium berghei [4]): 10 days
Activity (Plasmodium berghei [5]): 13.07%
Activity (Plasmodium berghei [6]): 24.38%
half-life [7]: 13.7 min
half-life [8]: 24.8 min
half-life [9]: 24.1 min
PPB (Plasma): 96.7%
MSD (Plasmodium berghei [10]): 8 days
